Where two headings read alike, the source gives them in different places.
Experiments:
[1] = target: T1, HeLa cell extract proteins (Homo sapiens, UniProt P31327); format: binding
T1 construct: endogenous in cells; host or cells: HeLa cell extract
T1 sequence (P31327 39-1500): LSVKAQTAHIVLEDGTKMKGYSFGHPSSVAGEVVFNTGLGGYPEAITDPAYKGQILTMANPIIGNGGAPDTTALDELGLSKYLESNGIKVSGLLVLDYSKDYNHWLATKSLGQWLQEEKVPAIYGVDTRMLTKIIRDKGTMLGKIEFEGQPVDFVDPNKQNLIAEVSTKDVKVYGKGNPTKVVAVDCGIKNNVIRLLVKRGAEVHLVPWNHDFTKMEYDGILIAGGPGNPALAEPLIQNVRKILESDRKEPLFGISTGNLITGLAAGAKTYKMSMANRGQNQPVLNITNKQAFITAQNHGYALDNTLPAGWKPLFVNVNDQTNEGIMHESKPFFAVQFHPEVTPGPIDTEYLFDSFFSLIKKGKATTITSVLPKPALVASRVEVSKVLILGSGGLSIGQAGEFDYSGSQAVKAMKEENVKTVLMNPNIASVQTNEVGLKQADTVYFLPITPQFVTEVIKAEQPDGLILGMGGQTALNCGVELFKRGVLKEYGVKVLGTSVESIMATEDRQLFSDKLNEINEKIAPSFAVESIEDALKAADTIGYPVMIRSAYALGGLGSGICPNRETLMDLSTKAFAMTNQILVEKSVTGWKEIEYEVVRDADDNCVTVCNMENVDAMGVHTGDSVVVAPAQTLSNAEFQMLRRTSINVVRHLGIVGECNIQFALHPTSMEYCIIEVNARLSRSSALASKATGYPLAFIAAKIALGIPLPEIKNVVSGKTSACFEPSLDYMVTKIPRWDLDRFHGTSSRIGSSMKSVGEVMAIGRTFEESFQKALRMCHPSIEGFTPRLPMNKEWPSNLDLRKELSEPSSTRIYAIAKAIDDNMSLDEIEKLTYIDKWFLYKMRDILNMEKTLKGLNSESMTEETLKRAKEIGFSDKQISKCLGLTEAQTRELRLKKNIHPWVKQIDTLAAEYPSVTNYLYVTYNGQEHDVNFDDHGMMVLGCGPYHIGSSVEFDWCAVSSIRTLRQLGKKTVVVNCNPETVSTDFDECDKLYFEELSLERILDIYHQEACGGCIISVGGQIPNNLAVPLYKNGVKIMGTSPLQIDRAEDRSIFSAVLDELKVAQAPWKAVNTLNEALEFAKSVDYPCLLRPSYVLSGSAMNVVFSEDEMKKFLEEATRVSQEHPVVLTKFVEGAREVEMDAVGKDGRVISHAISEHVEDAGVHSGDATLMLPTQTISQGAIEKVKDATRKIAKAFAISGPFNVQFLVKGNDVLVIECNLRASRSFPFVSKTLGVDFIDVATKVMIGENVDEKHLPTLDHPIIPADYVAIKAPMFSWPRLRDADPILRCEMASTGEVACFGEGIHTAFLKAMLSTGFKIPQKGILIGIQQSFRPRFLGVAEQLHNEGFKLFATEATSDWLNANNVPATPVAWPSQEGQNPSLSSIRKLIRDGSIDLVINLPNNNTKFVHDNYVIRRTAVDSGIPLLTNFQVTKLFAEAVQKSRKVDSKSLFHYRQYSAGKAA

[2] = target: T2, HeLa cell extract proteins (Homo sapiens, UniProt P53701); format: binding
T2 construct: endogenous in cells; host or cells: HeLa cell extract
T2 sequence (P53701 1-268): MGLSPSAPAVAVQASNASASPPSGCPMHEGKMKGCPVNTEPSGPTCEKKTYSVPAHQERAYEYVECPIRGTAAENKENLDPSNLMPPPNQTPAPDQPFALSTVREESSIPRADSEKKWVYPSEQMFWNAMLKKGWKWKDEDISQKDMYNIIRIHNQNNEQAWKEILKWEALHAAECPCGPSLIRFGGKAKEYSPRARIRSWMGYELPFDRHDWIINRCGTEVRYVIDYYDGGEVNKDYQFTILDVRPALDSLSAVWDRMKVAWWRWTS

| Structure (SMILES) | fold changes relative to vehicle control ([1]; HeLa, captured protein CPS1) | fold changes relative to vehicle control ([2]; HeLa, protein HCCS) | fold changes relative to vehicle control [1] | fold changes relative to vehicle control [2] | fold changes relative to vehicle control ([1]; protein CPS1, HeLa) |
| --- | --- | --- | --- | --- | --- |
| Nc1nc2c(c(=O)[nH]1)N(C=O)C(CNc1ccc(C(=O)N[C@@H](CCC(=O)O)C(=O)O)cc1)CN2 (some centres unmarked) [LEU, leucovorin] | 1.13 | 0.88 |  |  |  |
| Nc1nc2[nH]cc(CCc3ccc(C(=O)N[C@@H](CCC(=O)O)C(=O)O)cc3)c2c(=O)[nH]1 [PTX, pemetrexed] |  |  | 1.08 | 0.88 |  |
| CCCCCCOc1ccc(Cc2cnc(N)nc2N)cc1 [compound 1] |  | 0.84 |  |  | 1.27 |
| CCCCCCOc1cccc(Cc2cnc(N)nc2N)c1 [compound 2] |  | 0.9 |  |  | 1.61 |
| Nc1nc2cccc(-c3ccccc3)c2n1Cc1ccc(Cl)c(Cl)c1 [compound 3] |  | 0.96 |  |  | 1.09 |
| NCCOCCOCC(=O)Nc1nc2ncc(CNc3ccc(C(=O)NC(CCC(=O)O)C(=O)O)cc3)nc2c(=O)[nH]1 (centres unmarked) [compound 6] | 1.27 | 0.75 |  |  |  |
| NCCCNc1ccc(C(=O)NC(CCC(=O)O)C(=O)O)cc1 (centres unmarked) [compound 7] | 1.05 | 0.98 |  |  |  |

— PMC6199744, “Development of Chemical Proteomics for the Folateome and Analysis of the Kinetoplastid Folateome” (ACS Infectious Diseases, 2018)
